{
  "source": "BindingDB's records for doi:10.1021/acs.jmedchem.0c00656",
  "about": "(2020)",
  "biological_target": "T1, Vitamin D3 receptor A (Danio rerio, UniProt Q9PTN2)",
  "T1 sequence (Q9PTN2 whole entry)": "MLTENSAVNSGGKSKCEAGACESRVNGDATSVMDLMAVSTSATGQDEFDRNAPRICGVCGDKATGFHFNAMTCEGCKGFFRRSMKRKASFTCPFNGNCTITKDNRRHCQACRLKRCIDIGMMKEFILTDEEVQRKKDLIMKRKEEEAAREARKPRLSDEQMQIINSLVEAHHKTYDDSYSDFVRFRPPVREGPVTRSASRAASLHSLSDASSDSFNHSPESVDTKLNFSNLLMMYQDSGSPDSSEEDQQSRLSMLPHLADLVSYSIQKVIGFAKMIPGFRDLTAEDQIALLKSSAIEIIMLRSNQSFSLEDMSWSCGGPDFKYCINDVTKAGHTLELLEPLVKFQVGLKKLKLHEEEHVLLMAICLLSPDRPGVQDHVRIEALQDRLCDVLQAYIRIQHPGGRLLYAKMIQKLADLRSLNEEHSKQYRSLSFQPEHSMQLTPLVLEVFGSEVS",
  "test": "Binding affinity to zebrafish VDR LBD assessed as Kd for fluorescein-labeled SRC1 NR2 peptide binding by micro-scale thermophoresis method",
  "data": [
    {"smiles": "C=C1/C(=C\\C=C2/CCC[C@]3(C)[C@@H]([C@H](C)/C=C/[C@@H](O)C4(/C=C/C(=O)OCC)CC4)CC[C@@H]23)C[C@@H](O)C[C@@H]1O", "values": [
      {"measurement": "Kd", "result": "> 30", "unit": "µM"}
    ]}
  ]
}
